From patent publication US10435355B2, “Inhibitors of fatty acid amide hydrolase (FAAH) enzyme with improved oral bioavailability and their use as medicaments” (THE REGENTS OF THE UNIVERSITY OF CALIFORNIA, priority 2014, dated 2019)

Assay: Pharmacokinetic experiment (PO and IV) in cannulated rats
Type: in vivo, Sprague-Dawley rats
Settings: rat, plasma
Experimental: Pharmacokinetic Experiment and Analysis
Compounds were administered orally (PO) and intravenously (IV) to cannulated Sprague-Dawley rats at 10 and 3 mg/kg, respectively. Vehicle was: PEG400/Tween 80/Saline solution at 10/10/80 (% in volume), respectively. Three animals per dose were treated. Blood samples at 0, 15, 30, 60, 120, 240, 480 and 1440 min after administration were collected for PO arm. Blood samples at 0, 5, 15, 30, 60, 120 and 240 min after administration were collected for IV arm. Plasma was separated from blood by centrifugation for 15 min at 3500 rpm a 4° C., collected in a Eppendorf tube and frozen (−80° C.). Control animals treated with vehicle only were also included in the experimental protocol.
Preparation of Samples, Standard Curve and QC Samples for UPLC-MS Analysis
Samples were thawed in an ice bath and after a short centrifugation transferred (50 μL) into a 96-deepwell plate and added with 150 μL of acetonitrile spiked with 200 nM Warfarin (the Internal Standard, I.S.). After agitation (3 min) the plate was centrifuged at 3000 g for 10 min at 4° C. […]
Compounds plasma levels were monitored on a Xevo TQ UPLC-MS/MS system (Waters, Milford USA), using the calibration curve and the internal standard (Warfarin). […] Plasma levels data were analyzed using PKSolutions excel application (Summit Research Service, USA) to derive the most important pharmacokinetic parameters. […]

Structure (SMILES): CNC(=O)c1cccc(-c2cccc(OC(=O)NC3CCCCC3)c2)c1
- AUC PO (10 mg/kg): 90205 ng·min/mL
